The NIST ThermoML archive (doi:10.1021/je100423n)

Experiments:
[1] = for Normal melting temperature: Crystal, DTA
[2] = Molar enthalpy of transition or fusion; settings: Crystal; DSC
[3] = molar heat capacity at constant pressure; settings: 101.33 kPa, Crystal

Cn1cc[n+](CCCCS(=O)(=O)[O-])c1 [4-(1-methyl-1H-imidazolium-3-yl)butane-1-sulfonate]
Settings | Molar enthalpy of transition or fusion [kcal/mol] | Normal melting temperature [°C]
[1] | – | 235.83
[2] | 6.01 | –

Settings | Glass transition temperature [°C]
[1], Glass, Adiabatic calorimetry | 30.46

[3]
Settings | molar heat capacity at constant pressure [J/K/mol]
80.21 K | 109.32
82.3 K | 110.19
84.23 K | 111.45
86.16 K | 114.23
88.12 K | 115.88
90.06 K | 117.56
92.01 K | 118.29
93.95 K | 119.31
95.89 K | 120.93
97.83 K | 122.2
99.77 K | 123.74
102.48 K | 124.48
105.12 K | 126.89
107 K | 127.99
108.91 K | 129.52
110.85 K | 130.01
112.81 K | 131.16
114.75 K | 132.61
116.67 K | 133.57
118.61 K | 135.14
120.58 K | 137.07
122.53 K | 137.67
124.46 K | 138.87
126.38 K | 139.75
128.32 K | 140.75
130.3 K | 142.4
132.25 K | 144.69
134.2 K | 145.28
136.13 K | 145.45
138.04 K | 146.27
139.98 K | 147.32
141.94 K | 148.6
143.9 K | 150.42
145.84 K | 151.09
147.76 K | 152.25
149.67 K | 153.38
152.19 K | 153.72
154.71 K | 155.47
156.63 K | 157
158.54 K | 158.94
160.5 K | 159.74
162.51 K | 160.66
164.51 K | 162.3
166.5 K | 163.42
168.48 K | 163.25
170.44 K | 164.22
172.4 K | 166.07
174.34 K | 169.35
176.29 K | 169.43
178.22 K | 169.86
180.14 K | 172.46
182.06 K | 172.94
183.96 K | 173.45
185.91 K | 174.79
187.92 K | 176.2
189.92 K | 177.8
191.9 K | 179.25
193.89 K | 180.62
195.86 K | 181.69
197.82 K | 183.02
199.78 K | 184.59
202.16 K | 186.03
204.55 K | 188.92
206.52 K | 189.41
208.48 K | 190.86
210.43 K | 192.56
212.37 K | 193.16
214.31 K | 194.31
216.23 K | 195.92
218.15 K | 196.94
220.06 K | 198.36
221.95 K | 199.16
223.84 K | 200.4
225.81 K | 201.12
227.76 K | 203.49
229.69 K | 205.7
231.68 K | 206.8
233.67 K | 207.23
235.68 K | 210
237.67 K | 211.8
239.66 K | 212.72
242.01 K | 212.87
244.29 K | 213.82
246.26 K | 215.02
248.23 K | 216.05
250.19 K | 217.52
252.24 K | 219.72
254.3 K | 221.07
256.34 K | 222.28
258.38 K | 223.16
260.41 K | 224.41
262.43 K | 226.87
264.45 K | 228.3
266.45 K | 230.63
268.46 K | 233.04
270.45 K | 233.66
272.44 K | 235.64
274.42 K | 237.81
276.4 K | 239.51
278.38 K | 241.25
280.34 K | 243.42
282.3 K | 245.29
284.25 K | 246.94
286.19 K | 249.67
288.12 K | 252.87
290.04 K | 253.95
291.95 K | 254.73
293.85 K | 255.69
295.85 K | 257.59
297.85 K | 258.49
299.75 K | 260.96
301.74 K | 261.24
303.72 K | 264.66
305.71 K | 264.36
307.78 K | 264.22
309.84 K | 267.13
311.9 K | 269.55
313.95 K | 271.31
315.99 K | 273.57
318.03 K | 274.9
320.06 K | 276.18
322.09 K | 278.14
324.11 K | 279.41
326.12 K | 281.91
328.13 K | 283.31
330.13 K | 285.02
332.13 K | 286.68
334.12 K | 289.14
336.11 K | 290.13
338.09 K | 291.64
340.07 K | 293.16
342.04 K | 294.72
344 K | 297.82
345.96 K | 300.22
347.92 K | 301.67
349.87 K | 302.61
351.81 K | 304.94
353.75 K | 306.16
355.69 K | 308.54
357.62 K | 308.82
359.54 K | 310.24
361.47 K | 312.31
363.48 K | 313.02
365.48 K | 315.16
367.47 K | 315.19
369.54 K | 318.14
371.62 K | 320.13
373.68 K | 321.14
375.73 K | 323.95
377.79 K | 324.83
379.83 K | 325.26
381.87 K | 327.6
383.9 K | 332.07
385.94 K | 334
387.96 K | 335.27
389.98 K | 335.42
391.98 K | 337.63
393.99 K | 338.39
395.97 K | 341.92
397.96 K | 344.53

Cn1cc[n+](CCCS(=O)(=O)[O-])c1 [3-(1-methyl-1H-imidazolium-3-yl)propane-1-sulfonate]
Settings | Molar enthalpy of transition or fusion [kcal/mol] | Normal melting temperature [°C]
[1] | – | 217.30
[2] | 6.78 | –

[3]
Settings | molar heat capacity at constant pressure [J/K/mol]
79.8 K | 86.51
81.82 K | 88.12
83.72 K | 89.95
85.64 K | 89.73
87.56 K | 93.2
89.49 K | 95.76
91.4 K | 97.65
93.32 K | 99.15
95.24 K | 102.59
97.17 K | 103.14
99.12 K | 102.97
101.85 K | 103.15
104.55 K | 104.71
106.45 K | 105.28
108.39 K | 105.7
110.33 K | 111.76
112.29 K | 111.65
114.18 K | 111.92
116.13 K | 115.43
118.1 K | 116.28
120.05 K | 114.78
121.97 K | 115.61
123.88 K | 119.92
125.82 K | 122.24
127.79 K | 123.43
129.74 K | 125.12
131.67 K | 124.91
133.59 K | 127.13
135.53 K | 131.14
137.52 K | 130.24
139.48 K | 129.74
141.43 K | 131.92
143.37 K | 134.51
145.33 K | 134.71
147.34 K | 135.23
149.32 K | 136.3
151.86 K | 137.15
154.34 K | 136.69
156.25 K | 139.22
158.24 K | 141.2
160.2 K | 143.21
162.16 K | 143.46
164.1 K | 142.79
166.03 K | 143.55
167.95 K | 145.47
169.86 K | 147.4
171.84 K | 148.97
173.85 K | 149.72
175.86 K | 149.26
177.86 K | 149.24
179.85 K | 152.16
181.84 K | 150.39
183.8 K | 154.14
185.77 K | 156.95
187.72 K | 158.74
189.66 K | 159.79
191.59 K | 160.39
193.51 K | 162.15
195.43 K | 163.86
197.4 K | 164.54
199.41 K | 165.47
201.87 K | 167.03
204.26 K | 168.03
206.21 K | 169.73
208.23 K | 170.72
210.24 K | 171.01
212.24 K | 172.7
214.24 K | 173.59
216.23 K | 174.98
218.22 K | 175.65
220.2 K | 176.48
222.16 K | 177.33
224.13 K | 178.37
226.09 K | 179.05
228.04 K | 180.76
229.98 K | 181.37
231.89 K | 182.01
233.91 K | 183.89
235.92 K | 184.74
237.85 K | 185.76
239.79 K | 186.01
242.05 K | 187.95
244.34 K | 187.83
246.29 K | 188.35
248.25 K | 190.3
250.19 K | 193.13
252.14 K | 194.47
254.07 K | 195.68
255.99 K | 196.3
257.92 K | 197.35
259.83 K | 198.68
261.74 K | 199.57
263.64 K | 200.05
265.55 K | 201.61
267.43 K | 202.34
269.32 K | 203.12
271.3 K | 205.52
273.27 K | 206.92
275.24 K | 208.19
277.3 K | 209.38
279.36 K | 210.92
281.42 K | 212.37
283.48 K | 214.25
285.52 K | 216.3
287.56 K | 218.37
289.55 K | 220.99
293.53 K | 222.83
295.51 K | 223.55
297.5 K | 224.52
299.48 K | 225.32
301.46 K | 225.86
303.43 K | 227.02
305.4 K | 226.03
307.36 K | 230.37
309.31 K | 235.18
311.27 K | 235.45
313.22 K | 236.03
315.16 K | 234.76
317.1 K | 236.03
319.02 K | 238.01
320.95 K | 239.81
322.87 K | 240.52
324.78 K | 243.51
326.69 K | 246.23
328.59 K | 244.95
330.48 K | 246.48
332.37 K | 249.83
334.35 K | 249.15
336.32 K | 251.01
338.27 K | 250.4
340.28 K | 254.4
342.23 K | 256.8
344.09 K | 255.82
345.86 K | 260.16
347.69 K | 257.32
349.6 K | 262.66
351.56 K | 261.97
353.54 K | 259.52
355.49 K | 263.89
357.41 K | 266.15
359.38 K | 268.15
361.39 K | 270.9
363.37 K | 269.56
365.32 K | 267.19
367.26 K | 270.08
369.16 K | 275.79
371.1 K | 275.4
373.06 K | 275.42
375 K | 277.14
376.96 K | 279.35
378.97 K | 280.38
380.96 K | 281.24
383.24 K | 283.27
385.55 K | 285.76
387.47 K | 284.6
389.43 K | 285.05
391.54 K | 286.7
393.53 K | 288.42
395.46 K | 290.84
